{"source": "paper PMC12903969", "about": "“Discovery of a Novel and Potent Kir4.1 Inhibitor as a Safe and Rapid‐Onset Antidepressant Agent in Mice” (Advanced Science, 2025)", "type_in_all_cases": "in vivo", "key": {"C57BL/6J mice [1]": {"system": "C57BL/6J mice", "test": "DOI-induced head twitch response (HTR)", "settings": "10 mg kg−1, 30-min test period", "procedure": "Male C57BL/6J mice were habituated to the testing chambers for 30 min and 24 h after receiving acute doses of (S)‐ketamine (10 mg kg^−1, i.p.) or JX3212 (10 mg kg^−1, i.p.). Thirty minutes later, the mice received DOI at a dose of 5 mg kg^−1 (i.p.), and the head‐twitch response was scored over 30 min."}, "C57BL/6J mice after CSDS [2]": {"system": "C57BL/6J mice after CSDS", "test": "Chronic social defeat stress (CSDS) model, sucrose preference test", "procedure": "(§1) The 10‐day CSDS paradigm was conducted as previously described.^[ [24] ^] CD‐1 aggressive mice were singly housed in defeat cages on one side of a perforated plexiglass partition 24 h before the defeat session. Experimental C57BL/6J mice were placed daily on the resident cage side of a novel CD‐1 aggressor that rapidly initiated a physical attack on the intruder. After 10‐min of social defeat, the intruder mice were housed on the opposite side of the partition within a shared home cage, experiencing further sensory contact for the subsequent 24 h. In contrast, control mice were maintained in their home cages and allowed to explore the empty defeat cages for 10 min each day.\nMice were individually housed with two identical bottles containing either 1% sucrose solution or tap water for 24 h. The bottles were then replaced to eliminate potential positional bias, followed by an additional 24‐h period with the same solutions. Subsequently, the mice were provided with tap water for 24 h. During the experimental phase, new bottles filled with either 1% sucrose solution or tap water were presented for 24 h, and the bottles were changed every 12 h. The bottles were weighed both before and after the 24‐h test to assess consumption of each solution."}, "C57BL/6J mice after CSDS [3]": {"system": "C57BL/6J mice after CSDS", "test": "CSDS model, social interaction test", "settings": "single i.p. injection 10 mg kg−1", "procedure": "as §1\nC57BL/6J mice, comprising both control and experimental groups, were placed individually into the social open field with a plexiglass enclosure positioned along the side wall. Movement parameters, including the time spent in the interaction zone, corner zones, and locomotion, were monitored and analyzed over the two test sessions using the AnyMaze Tracking System. In the first session, the mice freely explored the arena for 2.5 min. Then, a new aggressive CD‐1 mouse was introduced into the plexiglass enclosure, and the experimental mice returned to the arena for the second 2.5‐min session. The social interaction ratio was determined as the ratio between the time the experimental mice spent in the interaction zone when the target CD‐1 was present and the time spent in the zone when it was absent."}, "C57BL/6J mice [4]": {"system": "C57BL/6J mice", "test": "Novelty-suppressed feeding test (NSFT)", "settings": "single dose 10 mg kg−1 i.p., 1 h after administration", "procedure": "The mice were individually housed in new cages and deprived of food for 24 h. The testing equipment was a brightly lit plastic box measuring 40 × 40 × 30 cm^3 with a light intensity of 1100–1200 lux. Each mouse was positioned in a corner of the device with one food pellet located at the center. The latency to start chewing food was recorded within 5 min. Immediately thereafter, the mice were placed back in their home cage with pre‐measured food, and the amount consumed in the next 5 min was used as a baseline to account for appetite changes that might affect the outcome."}, "C57BL/6J mice after CSDS [5]": {"system": "C57BL/6J mice after CSDS", "test": "CSDS model, forced swim test", "procedure": "as §1\nMice were placed individually in a transparent glass cylinder (25 cm high, 10 cm wide) filled with water (temperature 23–25 °C) to a depth of 10 cm, and prevented from making contact with the bottom. Mice behaviors were videotaped from each side. The observation period lasted for 6 min, with the final 4 min used to measure immobile behavior, which was processed using the AnyMaze Tracking System (Stoelting)."}, "[6]": {"settings": "single i.p. injection 10 mg kg−1"}}, "note": "Values joined by “and” are separate entries in the source; they are usually repeats but may differ in a detail not shown here. Equal entries are not always repeated.", "data": [{"smiles": "CN[C@]1(c2ccccc2Cl)CCCCC1=O", "note": "[(S)‐ketamine]", "values": [{"measurement": "number of DOI-induced head twitches vs vehicle (in words)", "setting": "C57BL/6J mice [1]", "value": "significantly more"}, {"measurement": "SPT sucrose preference after CSDS, single mice", "setting": "C57BL/6J mice after CSDS [2]; 10 mg/kg (Fig 3H)", "value": "0.9625 and 0.9959 and 0.9967 and 0.7227 and 0.9713 and 0.6431 and 0.7826 and 0.9953"}, {"measurement": "CSDS: sucrose preference in SPT (in words)", "setting": "C57BL/6J mice after CSDS [2]; [6]", "value": "increased sucrose preference"}, {"measurement": "CSDS: time spent in corners in SIT (in words)", "setting": "C57BL/6J mice after CSDS [3]", "value": "shorter duration spent in the corners"}, {"measurement": "NSFT latency to feed (in words)", "setting": "C57BL/6J mice [4]", "value": "significantly reduced the latency to feed"}, {"measurement": "FST immobility time after CSDS, single mice", "setting": "C57BL/6J mice after CSDS [5]; 10 mg/kg (Fig 3I)", "value": "77.33 and 102.37 and 98.48 and 95.78 and 108.86 and 103.57 and 122.58"}, {"measurement": "CSDS: immobility in FST (in words)", "setting": "C57BL/6J mice after CSDS [5]; [6]", "value": "no significant impact"}]}]}
